Data published in paper PMC9778984, “5′-Chalcogen-Substituted Nucleoside Pyrophosphate and Phosphate Monoester Analogues: Preparation and Hydrolysis Studies” (International Journal of Molecular Sciences, 2022).
One block for each molecule: values may come before it.

Experiments:
[1] = pKa of the phosphoryl moieties by 31P NMR titration; type: physicochemical; details: from Pβ resonance shift on acidification of aqueous solution; represents a maximum pKa value
Description: (§1) In order to further assess the potential for chalcogen-substituted pyrophosphate linkages to enable targeted drug delivery, the pKa values of the phosphoryl moieties were assessed using ^31P NMR titration. […] Similar values were determined for dTChppA (3.2 for 2a; 3.4 for 2b) although maximal shifts of 0.2 ppm were observed and a second inflection at ca. pH 8.5 may indicate that the shifts reflect nucleobase ionisation as significant intramolecular base stacking occurs in AppA and other dinucleoside pyrophosphates. However, the titrations’ inflections represent a maximum pKa value and therefore indicate that these moieties will be fully charged at physiological pH. We therefore briefly compared the cleavage of these pyrophosphates using snake venom monitoring the reactions of NADH, dTSppA (2a) and dTSeppA (2b) by ^31P NMR. Over 95% consumption of the native pyrophosphate substrate was observed consumed within one hour. In contrast, ca. 25% and 20% of the sulfur- and selenium-substituted analogues were cleaved during this timeframe. […] In contrast, digestion of dTSeppA plateaued at ca. 45% which may result from denaturation of the protein following release of 5′-dTSeMP and subsequent spontaneous hydrolysis to the corresponding selenol and its subsequent interaction with the active site zinc dyad and disulfide linkages.

snake venom (SVPDE) = assay: Snake venom (SVPDE) digestion monitored by 31P NMR; type: biochemical; details: for mM consumed (31P NMR): 10 mM substrate, 37 °C, pH 7.5; for substrate consumed (digestion): over the subsequent 14 h; for substrate consumed (cleaved): within one hour
Description: as §1
To a solution of 10 mM substrate (NADH/dTSppA (2a)/dTSeppA (2b)) in aqueous buffer (TrisꞏHCl (50 mM, pH 7.5), NaCl (50 mM), 1mM MgCl2ꞏ(H2O)6) was added a solution of snake venom 0.2 mg/µL (10 µL). The reaction mixtures were incubated at 37°C for 30 minutes. Digestion was monitored by 31P NMR. dX(Ch)ppA SV P D digestion […]
mM NADH mM dTSppA mM dTSeppA time/h consumed time/h consumed time/h consumed

[2] = Hydrolysis of dinucleoside pyrophosphates at 90 °C, analysed by CZE and RP-HPLC; type: physicochemical; details: for rate constant for the decomposition of the deadenylation (depurination) product / rate constant for the formation of the deadenylation (depurination) product: kinetics of parallel and consecutive reactions; for half-life of the total disappearance: neutral conditions
Description: Reactions of pyrophosphates dASppA (1a) and 3′,5′-dTSppA (3) were studied at 90 °C. Samples taken from reaction solutions were analysed by two methods: capillary zone electrophores (CZE) and reversed-phase HPLC (RP-HPLC), for detection of polar and neutral reaction components, respectively. […] In general, the reactivity of 1a and 3 is low; the half-lives under neutral conditions are measured in tens of days even at 90 °C. The rate of the total disappearance of thiopyrophosphates 1a and 3 is practically pH-independent between pH 6 to 9. The reactivity increases at a lower pH; under alkaline conditions, the rate-enhancement is more modest.
Kinetic experiments with dinucleoside pyrophosphates 1a,b and 3 have been carried out using methods that have been reported previously, and are only briefly described below. Other experimental methods are described in detail in the Supplementary Materials (Figures S1 and S2, Tables S1 and S2).
Capillary zone electrophoretic (CZE) analysis was carried on an HP ^3DCE or on a Beckman Coulter P/ACE MDQA equipment. A fused silica capillary (57 cm effective length, 75 μm i.d.) was used. The background electrolyte was a 25 mM potassium phosphate buffer (pH 7.2). A voltage of 25–30 kV was applied and the compounds were detected at […] (HP) or 254 nm (Beckman).
RP-HPLC analysis was carried on an Agilent 1100 HPLC equipped with a DAD-detector. A Supelcosil LC-18 column (25 × 0.4 cm, particle size 5 μm) was used to separate reaction components. Eluents were mixtures of acetonitrile (MeCN) (Honeywell, Germany) and acetate buffer (0.05 M, pH 4.3) containing 0.1 M ammonium chloride (Sigma-Aldrich, Seelze, Germany). The gradient program used in routine analysis was as follows: 0–10 min isocratic 5% MeCN, 10–20 min a linear gradient to 33% MeCN, 20–30 min isocratic 33% MeCN, 30–35% a linear gradient to 5% MeCN. Flow rate was 1 mL/ min. UV-active compounds were detected at 260 nm.
Rate constants were calculated by applying the integrated first-order rate law to the disappearance of the starting material. Rate constants for the formation and decompositions of products were calculated by applying the rate law of parallel and consecutive reactions. In the case of 2, the concentration of the starting material and products were determined using calibration curves based on authentic samples. Diphenyl phosphate was used as an internal standard in reactions.

[3] = Hydrolysis of nucleotides (phosphorus-chalcogen bond cleavage of monoesters) in aqueous buffer, monitored by 31P NMR; type: physicochemical; details: for ΔH^‡ of phosphorus-chalcogen bond cleavage / ΔS^‡ of phosphorus-chalcogen bond cleavage: neutral pH, Eyring parameters from variable temperature NMR
Description: Novel sulfur and selenium substituted 5′,5′-linked dinucleoside pyrophate analogues were prepared in a vibration ball mill from the corresponding persilylated monophosphate. The chemical hydrolysis of pyrophosphorochalcogenolate-linked dimers was studied over a wide pH-range. […] The chemical stability of the precursor phosphorochalcogenolate monoesters was also investigated. […] The rate of dephosphorylation was dependent upon both the nature of the chalcogen and the pH. The integrity of the P-S bond in the corresponding phosphorothiolate was maintained at high pH but rapidly degraded at pH 3. In contrast, P-Se bond cleavage of the phosphoroselenolate monoester was rapid and the rate increased with alkalinity. The results obtained in kinetic experiments provide insight on the reactivity of the novel pyrophosphates studied as well as of other types of thiosubstituted biological phosphates.
Evidence for a dissociative transition state can be seen in the Eyring parameters derived from variable temperature NMR analysis of the phosphorus-chalcogen bond cleavage kinetics at 29 8K, 308 K and 318 K under neutral pH conditions. Thus, positive ΔS^‡ values of 79 and 35 J mol^−1 K^−1 were determined for 5′-dTSMP (4a) and 5′-dTSeMP (4b), respectively.

[4] = as above; type: physicochemical

Structure (SMILES): Cc1cn([C@H]2C[C@H](O)[C@@H](CSP(=O)(O)OP(=O)(O)OC[C@H]3O[C@@H](n4cnc5c(N)ncnc54)[C@H](O)[C@@H]3O)O2)c(=O)[nH]c1=O [2a, 5'-thiothymidine 5'-pyrophosphate (P' →5') adenosine]
- pKa [1]: 3.2
- mM consumed (31P NMR) (snake venom (SVPDE); time 1 h): 2.57 mM
- mM consumed (31P NMR) (snake venom (SVPDE); time 2 h): 4.17 mM
- mM consumed (31P NMR) (snake venom (SVPDE); time 4 h): 7.12 mM
- mM consumed (31P NMR) (snake venom (SVPDE); time 15 h): 10 mM
- substrate consumed (digestion) (snake venom (SVPDE)): complete consumption
- substrate consumed (cleaved) (snake venom (SVPDE)): ca. 25%

Structure (SMILES): Nc1ncnc2c1ncn2[C@@H]1O[C@H](CS[P@](=O)(O)O[P@](=O)(O)OC[C@@H](O)[C@@H](O)[C@@H](O)C=O)[C@@H](O)[C@H]1O [compound 13]
- rate constant for the decomposition of the deadenylation (depurination) product ([2]; pH 2, 90 °C): 3.1e-05 s⁻¹
- rate constant for the formation of the deadenylation (depurination) product ([2]; pH 2, 90 °C): 1.9e-05 s⁻¹

Structure (SMILES): Cc1cn([C@H]2C[C@H](S[P@](=O)(O)O[P@](=O)(O)OC[C@@H](O)[C@@H](O)[C@@H](O)C=O)[C@@H](CO)O2)c(=O)[nH]c1=O [compound 18]
- rate constant for the decomposition of the deadenylation (depurination) product ([2]; pH 2, 90 °C): 2e-05 s⁻¹
- rate constant for the formation of the deadenylation (depurination) product ([2]; pH 2, 90 °C): 2.3e-05 s⁻¹

Structure (SMILES): Nc1ncnc2c1ncn2[C@@H]1O[C@H](COP(=O)(O)OP(=O)(O)[Se]C[C@H]2O[C@@H](n3cnc4c(N)ncnc43)[C@H](O)[C@@H]2O)[C@@H](O)[C@H]1O [1b, 5′-deoxy-5′-selenoadenosine 5′-pyrophosphate (P′ →5′) adenosine]
- pKa [1]: 3.3
- rate constant of the total disappearance ([2]; pH 2, 90 °C): (1.55 ± 0.04) × 10^−4 s^−1
- rate constants from the initial linear plot relative to those obtained for 1a ([2]; pH above acidic, where the reaction is not first-order, 90 °C, difference largest under neutral conditions): 5 to 20 times

- k (rate constant for the hydrolysis) ([3]; pH 3, 363 K): 2.60 10^−6 s^−1
Structure (SMILES): Cc1cn([C@H]2C[C@H](O)[C@@H](COP(=O)(O)O)O2)c(=O)[nH]c1=O [4c, 5′-TMP, reference compound]

Structure (SMILES): Cc1cn([C@H]2C[C@H](O)[C@@H](CSP(=O)(O)O)O2)c(=O)[nH]c1=O [4a]
- time for hydrolysis ([3]; acidic conditions, 25 °C): within hours
- ΔH^‡ of phosphorus-chalcogen bond cleavage [3]: 30.23 kcal/mol
- ΔS^‡ of phosphorus-chalcogen bond cleavage [3]: 79 J mol^−1 K^−1
- k (rate constant for the hydrolysis) ([3]; pH 3, 298 K): 152 10^−6 s^−1
- reactivity difference between 5′-dTSMP (4a) and 5′-TMP (4c) ([3]; pH 3, estimated on the basis of Table 1): approximately 700,000 fold
- k (rate constant for the hydrolysis) ([3]; pH 7, 298 K): 5.19 10^−6 s^−1
- k (rate constant for the hydrolysis) ([3]; pH 7, 308 K): 17.1 10^−6 s^−1
- k (rate constant for the hydrolysis) ([3]; pH 7, 318 K): 58.4 10^−6 s^−1
- k (rate constant for the hydrolysis) ([3]; pH 11, 298 K): 0.34 10^−6 s^−1

Structure (SMILES): NC(=O)C1=CN([C@@H]2O[C@H](COP(=O)(O)OP(=O)(O)OC[C@H]3O[C@@H](n4cnc5c(N)ncnc54)[C@H](O)[C@@H]3O)[C@@H](O)[C@H]2O)C=CC1 [NADH, reference compound]
- mM consumed (31P NMR) (snake venom (SVPDE); time 1 h): 9.62 mM
- mM consumed (31P NMR) (snake venom (SVPDE); time 2 h): 10 mM
- substrate consumed (cleaved) (snake venom (SVPDE)): Over 95%

Structure (SMILES): Cc1cn([C@H]2C[C@H](O)[C@@H](C[Se]P(=O)(O)OP(=O)(O)OC[C@H]3O[C@@H](n4cnc5c(N)ncnc54)[C@H](O)[C@@H]3O)O2)c(=O)[nH]c1=O [2b, 5′-deoxy-5′-selenothymidine 5′-pyrophosphate (P′ →5′) adenosine]
- pKa [1]: 3.4
- mM consumed (31P NMR) (snake venom (SVPDE); time 1 h): 2.13 mM
- mM consumed (31P NMR) (snake venom (SVPDE); time 2 h): 3.19 mM
- mM consumed (31P NMR) (snake venom (SVPDE); time 3 h): 3.98 mM
- mM consumed (31P NMR) (snake venom (SVPDE); time 5 h): 4.41 mM
- mM consumed (31P NMR) (snake venom (SVPDE); time 7 h): 4.45 mM
- mM consumed (31P NMR) (snake venom (SVPDE); time 9 h): 4.48 mM
- mM consumed (31P NMR) (snake venom (SVPDE); time 15 h): 4.61 mM
- substrate consumed (digestion) (snake venom (SVPDE)): ca. 45%
- substrate consumed (cleaved) (snake venom (SVPDE)): ~20%

Structure (SMILES): Cc1cn([C@H]2C[C@H](O)[C@@H](C[Se]P(=O)(O)O)O2)c(=O)[nH]c1=O [4b]
- ΔH^‡ of phosphorus-chalcogen bond cleavage [3]: 26.43 kcal/mol
- ΔS^‡ of phosphorus-chalcogen bond cleavage [3]: 35 J mol^−1 K^−1
- k (rate constant for the hydrolysis) ([3]; pH 3, 298 K): 53.1 10^−6 s^−1
- k (rate constant for the hydrolysis) ([3]; pH 7, 298 K): 16.8 10^−6 s^−1
- k (rate constant for the hydrolysis) ([3]; pH 11, 298 K): 14.4 10^−6 s^−1
- k (rate constant for the hydrolysis) ([4]; pH 7, 303 K): 75.1 10^−6 s^−1
- k (rate constant for the hydrolysis) ([4]; pH 7, 313 K): 297 10^−6 s^−1

Structure (SMILES): Cc1cn([C@H]2C[C@H](S[P@](=O)(O)O[P@](=O)(O)OC[C@H]3O[C@@H](n4cnc5c(N)ncnc54)[C@H](O)[C@@H]3O)[C@@H](CO)O2)c(=O)[nH]c1=O [compound 3]
- half-life of the total disappearance ([2]; 90 °C): tens of days
- rate constant for dethyminylation ([2]; neutral pH, 90 °C, non-linear regression on thymine formation, rather approximate): (2.2 ± 0.2) × 10^−7 s^−1

Structure (SMILES): Nc1ncnc2c1ncn2[C@@H]1O[C@H](COP(=O)(O)OP(=O)(O)SC[C@H]2O[C@@H](n3cnc4c(N)ncnc43)[C@H](O)[C@@H]2O)[C@@H](O)[C@H]1O [1a, 5′-Thioadenosine 5′-Pyrophosphate (P′→5′) adenosine]
- pKa [1]: 3
- half-life of the total disappearance ([2]; 90 °C): tens of days
- rate constant of the total disappearance ([2]; pH 2, 90 °C): 9.3e-05 s⁻¹
- phosphate hydrolysis rate constant relative to that reported for Ap2A (1c) ([2]; pH 2, 90 °C, same conditions, Ap2A value from ref 33): six times larger
- rate constant of phosphate hydrolysis ([2]; pH 2, 90 °C, total disappearance divided, assuming the two deadenylation routes are equally fast): 5.5e-05 s⁻¹
